Reference: patent US6271416A, “Quinolinone derivative, method for preparing the same, and anti-allergic agent” (Dainippon Ink and Chemicals, Inc., priority 1997, dated 2001)

system: homologous passive cutaneous anaphylaxis (PCA) reaction; experiment: Effect on homologous passive cutaneous anaphylaxis (PCA) reaction in rats; assay type: in vivo, rat (male wistar); settings: Rattus norvegicus, positive control, 200 mg/kg oral, 1 hour before induction
Experimental: Effect on homologous passive cutaneous anaphylaxis (PCA) reaction in rats
This experimental animal model is caused by immediate type allergic reaction, namely, antigen-antibody reaction. In the following, the method of this pharmacological test will be explained.
Method: Male wistar rats (9 weeks old) were intradermally administered 0.05 ml of anti-serum against dinitrophenylated ascaris (DNP-As) into two sites on the shaved dorsal skin. 48 hours later, quinolinone derivatives (test compounds) suspended in 0.5% methylcellulose (MC) were given orally at a dose of 100 mg/kg to the animals. 1 hour after administration of Test compounds, the animals were induced anaphylaxis by injection of saline (1 ml) dissolving 1 mg of trinitrophenylated ascaris (TNP-As) and 5 mg of Evans Blue into the tail vein of the animals. 30 minutes after induction of anaphylaxis, animals were anesthetized by ether and killed by bleeding, and were flayed dorsal skin. The leakage of dye was assessed by measuring the diameter (mean of shortest and longest diameter) of the blue spot on the inside surface of dorsal skin. As vehicle control group, only 0.5% MC solution was administered orally, and as positive control group, Tranilast suspended in 0.5% MC were administered orally at a dose of 200 mg/kg to the animals with the same method as the test compounds groups. Each experimental group consisted of 5 rats. In the conditions of this experinent, it was considered that the compound, which inhibited PCA reaction by over forty (40) percent against that in vehicle control group, was evidently effective for immediate type allergy.
Inhibition (%)=(A-B)/A×100 (Equation 1)
A: leakage of dye in vehicle control group
B: leakage of dye in test compound group or positive control group

| SMILES | inhibition in vivo at 200 mg/kg |
| --- | --- |
| COc1ccc(/C=C/C(=O)Nc2ccccc2C(=O)O)cc1OC [Tranilast, reference compound] | 52% |

same assay, conditions: Rattus norvegicus, test compounds, 100 mg/kg oral, 1 hour before induction

| SMILES | inhibition in vivo at 100 mg/kg |
| --- | --- |
| CCCCOc1c(O)c2c(C(=O)OCC)cccc2n(C)c1=O [Compound 38, 5-ethoxycarbonyl-3-butoxy-4-hydroxy-1-methyl-2(1H)-quinolinone] | 45% |
| CC(=O)Nc1ccc2c(c1)c(O)c(Oc1ccccc1)c(=O)n2C [Compound 26, 6-acetylamino-3-phenoxy-4-hydroxy-1-methyl-2(1H)-quinolinone] | 39% |
| CCOc1c(O)c2c(N)cccc2n(C)c1=O [Compound 23, 5-amino-3-ethoxy-4-hydroxy-1-methyl-2(1H)-quinolinone] | 40% |
| CCCCCCCCCCOc1ccc2c(c1)c(O)c(OC)c(=O)n2C [Compound 54, 6-decyloxy-3-methoxy-4-hydroxy-1-methyl-2(1H)-quinolinone] | 50% |
| CCCCCCCCn1c(=O)c(Oc2ccccc2)c(O)c2cc(-c3ccccc3)ccc21 [Compound 34, 6-phenyl-3-phenoxy-4-hydroxy-1-octyl-2(1H)-quinolinone] | 37% |
| CCCCCCOc1c(O)c2cccc(OCCCCCC)c2n(C)c1=O [Compound 85, 3,8-dihexyloxy-4-hydroxy-1-methyl-2(1H)-quinolinone] | 50% |
| CCCCCCCCOc1c(O)c2ccc(NC(C)=O)cc2n(C)c1=O [Compound 76, 7-acetylamino-3-octyloxy-4-hydroxy-1-methyl-2(1H)-quinolinone] | 51% |
| Cn1c(=O)c(Oc2ccccc2)c(O)c2cc(N)ccc21 [Compound 24, 6-amino-3-phenoxy-4-hydroxy-1-methyl-2(1H)-quinolinone] | 42% |
| CCCCOc1c(O)c2cc(C(=O)OCC)ccc2n(C)c1=O [Compound 80, 6-ethoxycarbonyl-3-butoxy-4-hydroxy-1-methyl-2(1H)-quinolinone] | 41% |
| CCCCCCCCCCNc1ccc2c(c1)c(O)c(OC)c(=O)n2C [Compound 49, 6-decylamino-3-methoxy-4-hydroxy-1-methyl-2(1H)-quinolinone] | 50% |
| COc1c(O)c2cc(NC/C=C(\C)CCC=C(C)C)ccc2n(C)c1=O [Compound 52, 6-geranylamino-3-methoxy-4-hydroxy-1-methyl-2(1H)-quinolinone] | 49% |
| CCCCCCCCOc1c(O)c2cccc(NC(=O)/C=C/c3cc(OC)c(O)c(OC)c3)c2n(C)c1=O [Compound 79, 8-[(3,5-dimethoxy-4-hydroxycinnamoyl)amino]-3-octyloxy-4-hydroxy-1-methyl-2(1H)-quinolinone] | 49% |
| CCCCCCCCCCOC(=O)c1cccc2c1c(O)c(OCCCC)c(=O)n2C [Compound 68, 5-decyloxycarbonyl-3-butoxy-4-hydroxy-1-methyl-2(1H)-quinolinone] | 49% |
| CCCCNc1cccc2c(O)c(OC/C=C(\C)CCC=C(C)C)c(=O)n(C)c12 [Compound 53, 8-butylamino-3-geranyloxy-4-hydroxy-1-methyl-2(1H)-quinolinone] | 45% |
| CCCCOc1c(O)c2cccc(C(=O)Oc3ccccc3)c2n(C)c1=O [Compound 83, 8-phenoxycarbonyl-3-butoxy-4-hydroxy-1-methyl-2(1H)-quinolinone] | 42% |
| COc1c(O)c2c(O)cc(O)cc2n(C)c1=O [Compound 36, 5,7-dihydroxy-3-methoxy-4-hydroxy-1-methyl-2(1H)-quinolinone] | 45% |
| CC(C)=CCC/C(C)=C/COc1c(O)c2cccc(N)c2n(C)c1=O [Compound 45, 8-amino-3-geranyloxy-4-hydroxy-1-methyl-2(1H)-quinolinone] | 46% |
| COc1c(O)c2cc(C/C=C(\C)CCC=C(C)C)ccc2n(C)c1=O [Compound 61, 6-geranyl-3-methoxy-4-hydroxy-1-methyl-2(1H)-quinolinone] | 42% |
| CCOc1c(O)c2c(N)cccc2n(C/C=C(\C)CCC=C(C)C)c1=O [Compound 44, 5-amino-3-ethoxy-4-hydroxy-1-geranyl-2(1H)-quinolinone] | 42% |
| CCCCCCCCOc1c(O)c2cccc(NC)c2n(C)c1=O [Compound 86, 8-methylamino-3-octyloxy-4-hydroxy-1-methyl-2(1H)-quinolinone] | 53% |
| CCCCCCCCOc1c(O)c2c(NC(=O)/C=C/c3cc(OC)c(O)c(OC)c3)cccc2n(C)c1=O [Compound 77, 5-[(3,5-dimethoxy-4-hydroxycinnamoyl)amino]-3-octyloxy-4-hydroxy-1-methyl-2(1H)-quinolinone] | 55% |
| CCCCCCCCOc1cccc2c1c(O)c(OC)c(=O)n2C [Compound 84, 5-octyloxy-3-methoxy-4-hydroxy-1-methyl-2(1H)-quinolinone] | 49% |
| CCCCCCCCOc1c(O)c2cc(NC(=O)/C=C/c3cc(OC)c(O)c(OC)c3)ccc2n(C)c1=O [Compound 78, 6-[(3,5-dimethoxy-4-hydroxycinnamoyl)amino]-3-octyloxy-4-hydroxy-1-methyl-2(1H)-quinolinone] | 50% |
